In the NIST ThermoML archive (doi:10.1021/je034002l):
Numbers after ± are expanded uncertainties.

Experiment: xn = mol fraction of the nth substance listed
Conditions: 101.3 kPa, Liquid

CCCCCCCl [1-chlorohexane] + CCCCCC
Conditions	mass density [kg/m3]	viscosity [mPa·s]
293.15 K, x1 = 0.1	683.01 ± 0.55	0.3403 ± 0.0053
293.15 K, x1 = 0.15	694.01 ± 0.57	0.3532 ± 0.0054
293.15 K, x1 = 0.2	706.37 ± 0.58	0.3669 ± 0.0056
293.15 K, x1 = 0.3	728.21 ± 0.61	0.3965 ± 0.0059
293.15 K, x1 = 0.5	771.87 ± 0.68	0.4691 ± 0.0067
293.15 K, x1 = 0.7	815.39 ± 0.74	0.5662 ± 0.0078
293.15 K, x1 = 0.9	856.91 ± 0.81	0.6932 ± 0.0093
293.15 K, x1 = 1	878.52 ± 0.84	0.7704 ± 0.01
298.15 K, x1 = 0.1	678.51 ± 0.59	0.3263 ± 0.0051
298.15 K, x1 = 0.15	689.61 ± 0.61	0.3384 ± 0.0052
298.15 K, x1 = 0.2	701.84 ± 0.62	0.352 ± 0.0054
298.15 K, x1 = 0.3	723.73 ± 0.65	0.3794 ± 0.0057
298.15 K, x1 = 0.5	767.36 ± 0.72	0.4464 ± 0.0065
298.15 K, x1 = 0.7	810.91 ± 0.78	0.5367 ± 0.0075
298.15 K, x1 = 0.9	852.37 ± 0.84	0.6495 ± 0.0088
298.15 K, x1 = 1	873.75 ± 0.88	0.7173 ± 0.0096
303.15 K, x1 = 0.1	673.93 ± 0.63	0.313 ± 0.005
303.15 K, x1 = 0.15	685.15 ± 0.65	0.3245 ± 0.0051
303.15 K, x1 = 0.2	697.27 ± 0.66	0.3377 ± 0.0052
303.15 K, x1 = 0.3	719.21 ± 0.69	0.3632 ± 0.0055
303.15 K, x1 = 0.5	762.82 ± 0.76	0.4254 ± 0.0062
303.15 K, x1 = 0.7	806.39 ± 0.82	0.5094 ± 0.0072
303.15 K, x1 = 0.9	847.8 ± 0.88	0.6103 ± 0.0084
303.15 K, x1 = 1	868.98 ± 0.91	0.6702 ± 0.0091
308.15 K, x1 = 0.1	669.37 ± 0.67	0.2998 ± 0.0048
308.15 K, x1 = 0.15	680.63 ± 0.69	0.3107 ± 0.0049
308.15 K, x1 = 0.2	692.67 ± 0.7	0.3233 ± 0.0051
308.15 K, x1 = 0.3	714.64 ± 0.73	0.3475 ± 0.0054
308.15 K, x1 = 0.5	758.26 ± 0.79	0.4061 ± 0.006
308.15 K, x1 = 0.7	801.83 ± 0.86	0.4844 ± 0.0069
308.15 K, x1 = 0.9	843.21 ± 0.92	0.5754 ± 0.008
308.15 K, x1 = 1	864.21 ± 0.95	0.6283 ± 0.0086
313.15 K, x1 = 0.1	664.73 ± 0.71	0.2881 ± 0.0047
313.15 K, x1 = 0.15	676.04 ± 0.73	0.2985 ± 0.0048
313.15 K, x1 = 0.2	688.03 ± 0.74	0.3109 ± 0.005
313.15 K, x1 = 0.3	710.03 ± 0.77	0.3337 ± 0.0052
313.15 K, x1 = 0.5	753.66 ± 0.83	0.3884 ± 0.0058
313.15 K, x1 = 0.7	797.24 ± 0.9	0.4614 ± 0.0067
313.15 K, x1 = 0.9	838.59 ± 0.96	0.5436 ± 0.0076
313.15 K, x1 = 1	859.44 ± 0.99	0.591 ± 0.0082
318.15 K, x1 = 0.1	660.04 ± 0.75	0.2765 ± 0.0046
318.15 K, x1 = 0.15	671.39 ± 0.77	0.2865 ± 0.0047
318.15 K, x1 = 0.2	683.36 ± 0.78	0.2984 ± 0.0048
318.15 K, x1 = 0.3	705.37 ± 0.81	0.3201 ± 0.0051
318.15 K, x1 = 0.5	749.03 ± 0.87	0.372 ± 0.0057
318.15 K, x1 = 0.7	792.61 ± 0.94	0.4402 ± 0.0064
318.15 K, x1 = 0.9	833.95 ± 1	0.5152 ± 0.0073
318.15 K, x1 = 1	854.67 ± 1	0.558 ± 0.0078
323.15 K, x1 = 0.1	655.31 ± 0.79	0.266 ± 0.0045
323.15 K, x1 = 0.15	666.68 ± 0.81	0.2755 ± 0.0046
323.15 K, x1 = 0.2	678.65 ± 0.82	0.2868 ± 0.0047
323.15 K, x1 = 0.3	700.66 ± 0.85	0.3076 ± 0.0049
323.15 K, x1 = 0.5	744.37 ± 0.91	0.3569 ± 0.0055
323.15 K, x1 = 0.7	787.95 ± 0.97	0.4208 ± 0.0062
323.15 K, x1 = 0.9	829.29 ± 1	0.4899 ± 0.007
323.15 K, x1 = 1	849.9 ± 1.1	0.5285 ± 0.0075
328.15 K, x1 = 0.1	650.53 ± 0.83	0.256 ± 0.0043
328.15 K, x1 = 0.15	661.91 ± 0.85	0.2652 ± 0.0044
328.15 K, x1 = 0.2	673.9 ± 0.86	0.2759 ± 0.0046
328.15 K, x1 = 0.3	695.91 ± 0.89	0.2959 ± 0.0048
328.15 K, x1 = 0.5	739.68 ± 0.95	0.3428 ± 0.0053
328.15 K, x1 = 0.7	783.25 ± 1	0.4027 ± 0.006
328.15 K, x1 = 0.9	824.61 ± 1.1	0.4666 ± 0.0068
328.15 K, x1 = 1	845.12 ± 1.1	0.5019 ± 0.0072
333.15 K, x1 = 0.1	645.7 ± 0.87	0.2468 ± 0.0042
333.15 K, x1 = 0.15	657.07 ± 0.89	0.2556 ± 0.0043
333.15 K, x1 = 0.2	669.12 ± 0.9	0.2658 ± 0.0045
333.15 K, x1 = 0.3	691.11 ± 0.93	0.2849 ± 0.0047
333.15 K, x1 = 0.5	734.96 ± 0.99	0.3297 ± 0.0052
333.15 K, x1 = 0.7	778.51 ± 1.1	0.3862 ± 0.0058
333.15 K, x1 = 0.9	819.9 ± 1.1	0.4455 ± 0.0065
333.15 K, x1 = 1	840.35 ± 1.1	0.4778 ± 0.0069
